Source: ChEMBL document CHEMBL1201862, “PubChem BioAssay data set” (2004)
Active and inactive are the calls of the source.

Tests used:
INS1 = experiment: INS-1E survival protection against cytokine death – cell-based, luminescence, retest, dose response (AID 449756); format: functional; conditions: Rattus norvegicus;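 also: cell death triggered by IL-1 beta plus TNF-alpha plus IFN-gamma mixture; protective hits raise ATP signal compared with cytokine alone wells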
[1] = reduction of Shn3 3'UTR-driven luciferase in osteoblasts – cell-based, Clone20 osteoblasts, firefly luciferase, cherry-picked, dose response (AID 624132); format: functional;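 also: firefly luciferase luminescence from reporter carrying the Shn3 3'UTR in osteoblasts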
[2] = target: 26S proteasome non-ATPase regulatory subunit 14 (Homo sapiens, UniProt O00487); experiment: inhibition of proteasome subunit RPN11 – biochemical, fluorescence polarization, uHTS hits, confirmation (AID 602368); format: functional
26S proteasome non-ATPase regulatory subunit 14, sequence (O00487 whole entry): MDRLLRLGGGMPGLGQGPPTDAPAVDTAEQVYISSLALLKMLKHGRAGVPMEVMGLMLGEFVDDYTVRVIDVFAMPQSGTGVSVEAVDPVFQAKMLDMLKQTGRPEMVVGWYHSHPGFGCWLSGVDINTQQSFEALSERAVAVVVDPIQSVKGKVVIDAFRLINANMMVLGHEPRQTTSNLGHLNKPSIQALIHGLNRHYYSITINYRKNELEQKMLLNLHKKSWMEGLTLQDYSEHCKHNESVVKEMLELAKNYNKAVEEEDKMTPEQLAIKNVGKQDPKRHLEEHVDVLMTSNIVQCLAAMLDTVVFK

[3] = loss of viability in HepG2 cells – cell-based, CellTiter-Glo, cherry-picked, cytotoxicity control for Shn3 inhibitor project, dose response (AID 624134); format: functional
[4] = non-specific 3'UTR reporter inhibition in Clone20-Shn3RL – cell-based, Renilla luciferase, cherry-picked, counter-screen for Shn3 inhibitor project, dose response (AID 624133); format: functional
[5] = target: 72 kDa type IV collagenase (Homo sapiens, UniProt P08253); experiment: Dose Response validation of uHTS RPN11 inhibitor hits using a MMP-2 Fluorescence assay.; format: functional
72 kDa type IV collagenase, sequence (P08253 whole entry): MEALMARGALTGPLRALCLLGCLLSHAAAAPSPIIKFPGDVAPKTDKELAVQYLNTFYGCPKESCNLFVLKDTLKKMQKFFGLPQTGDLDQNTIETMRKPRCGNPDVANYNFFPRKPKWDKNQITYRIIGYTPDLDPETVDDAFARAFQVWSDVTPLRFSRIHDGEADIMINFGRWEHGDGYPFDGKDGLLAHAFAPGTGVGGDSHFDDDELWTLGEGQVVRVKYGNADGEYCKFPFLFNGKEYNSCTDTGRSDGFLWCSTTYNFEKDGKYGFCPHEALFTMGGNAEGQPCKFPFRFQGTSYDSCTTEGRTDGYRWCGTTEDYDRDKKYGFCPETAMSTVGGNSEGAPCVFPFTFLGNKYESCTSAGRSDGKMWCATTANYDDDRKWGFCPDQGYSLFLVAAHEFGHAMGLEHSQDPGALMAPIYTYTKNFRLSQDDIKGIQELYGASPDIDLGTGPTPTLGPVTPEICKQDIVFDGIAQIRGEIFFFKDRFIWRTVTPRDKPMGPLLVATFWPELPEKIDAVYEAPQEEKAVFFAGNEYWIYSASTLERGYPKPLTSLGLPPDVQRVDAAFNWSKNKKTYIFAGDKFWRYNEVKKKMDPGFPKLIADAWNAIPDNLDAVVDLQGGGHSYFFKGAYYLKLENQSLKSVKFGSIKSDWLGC

Prothrombin = Prothrombin (Bos taurus, UniProt P00735); experiment: thrombin protease inhibitors – biochemical, fluorescence polarization, uHTS hits, dose response (AID 602369); format: functional
[6] = target: T1, Sentrin-specific protease 8 (Homo sapiens, UniProt Q96LD8); format: functional
T1 sequence (Q96LD8 whole entry): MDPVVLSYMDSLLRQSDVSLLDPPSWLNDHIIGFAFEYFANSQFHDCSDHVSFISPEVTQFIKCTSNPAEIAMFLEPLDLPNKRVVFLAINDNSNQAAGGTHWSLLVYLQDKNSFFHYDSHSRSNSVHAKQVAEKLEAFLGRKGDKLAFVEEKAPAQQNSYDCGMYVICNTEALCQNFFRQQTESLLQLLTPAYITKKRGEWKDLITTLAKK

[7] = target: T1, Sentrin-specific protease 8; format: functional; remark: listed apart in the source
[8] = target: T2, Methionyl-tRNA synthetase, putative (Trypanosoma brucei brucei, UniProt Q38C91); format: functional, Trypanosoma brucei brucei strain 927/4 GUTat10.1
T2 sequence (Q38C91 whole entry): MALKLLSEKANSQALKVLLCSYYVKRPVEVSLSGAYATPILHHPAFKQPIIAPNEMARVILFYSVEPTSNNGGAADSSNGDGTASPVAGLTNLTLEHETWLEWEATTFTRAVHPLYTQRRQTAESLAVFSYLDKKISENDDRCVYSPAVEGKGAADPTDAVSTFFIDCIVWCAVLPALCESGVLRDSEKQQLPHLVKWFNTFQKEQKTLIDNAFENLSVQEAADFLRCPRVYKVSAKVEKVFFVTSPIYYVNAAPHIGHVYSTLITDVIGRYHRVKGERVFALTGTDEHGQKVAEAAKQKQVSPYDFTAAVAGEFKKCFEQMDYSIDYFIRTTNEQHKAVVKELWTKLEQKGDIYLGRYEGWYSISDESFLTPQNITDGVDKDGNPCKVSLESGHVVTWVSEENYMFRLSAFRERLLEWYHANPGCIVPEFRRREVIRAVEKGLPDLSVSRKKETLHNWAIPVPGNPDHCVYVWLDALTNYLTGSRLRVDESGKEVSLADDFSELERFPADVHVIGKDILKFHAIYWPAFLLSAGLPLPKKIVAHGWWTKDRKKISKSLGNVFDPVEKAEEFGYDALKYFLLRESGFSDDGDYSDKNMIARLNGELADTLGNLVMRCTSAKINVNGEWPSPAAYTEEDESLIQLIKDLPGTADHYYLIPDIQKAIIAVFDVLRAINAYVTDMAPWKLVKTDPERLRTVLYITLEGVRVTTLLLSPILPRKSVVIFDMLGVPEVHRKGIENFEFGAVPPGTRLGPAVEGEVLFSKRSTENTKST

[9] = Counterscreen for inhibitors of Trypanosoma brucei methionyl tRNA synthetase (MetRS): Luminescence-based cell-based high throughput dose response assay to identify compounds that are cytotoxic to Jurkat human T lymphocyte cells.; format: functional
[10] = target: T2, Methionyl-tRNA synthetase, putative; format: functional, Trypanosoma brucei brucei strain 927/4 GUTat10.1; remark: listed apart in the source
[11] = target: T3, Endoribonuclease toxin MazF (Escherichia coli K-12, UniProt P0AE70); experiment: activation of MazEF endoribonuclease cleavage – biochemical, fluorescence, single-stranded RNA substrate, uHTS hits, dose response (AID 588481); format: functional
T3 sequence (P0AE70 whole entry): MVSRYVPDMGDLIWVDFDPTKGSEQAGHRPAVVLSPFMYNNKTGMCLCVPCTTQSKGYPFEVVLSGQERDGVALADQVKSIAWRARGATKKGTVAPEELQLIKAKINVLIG

[12] = target: T3, Endoribonuclease toxin MazF; experiment: substrate-only fluorescence increase artefacts – biochemical, single-stranded RNase substrate, counter-screen for MazEF activator project, dose response (AID 588502); format: functional
Beta-galactosidase = Beta-galactosidase (Escherichia coli, UniProt Q8VNN2); experiment: Dose response counterscreen for EBI2 assay utilizing the enzyme, b-galactosidase.; format: functional
Beta-galactosidase, sequence (Q8VNN2 whole entry): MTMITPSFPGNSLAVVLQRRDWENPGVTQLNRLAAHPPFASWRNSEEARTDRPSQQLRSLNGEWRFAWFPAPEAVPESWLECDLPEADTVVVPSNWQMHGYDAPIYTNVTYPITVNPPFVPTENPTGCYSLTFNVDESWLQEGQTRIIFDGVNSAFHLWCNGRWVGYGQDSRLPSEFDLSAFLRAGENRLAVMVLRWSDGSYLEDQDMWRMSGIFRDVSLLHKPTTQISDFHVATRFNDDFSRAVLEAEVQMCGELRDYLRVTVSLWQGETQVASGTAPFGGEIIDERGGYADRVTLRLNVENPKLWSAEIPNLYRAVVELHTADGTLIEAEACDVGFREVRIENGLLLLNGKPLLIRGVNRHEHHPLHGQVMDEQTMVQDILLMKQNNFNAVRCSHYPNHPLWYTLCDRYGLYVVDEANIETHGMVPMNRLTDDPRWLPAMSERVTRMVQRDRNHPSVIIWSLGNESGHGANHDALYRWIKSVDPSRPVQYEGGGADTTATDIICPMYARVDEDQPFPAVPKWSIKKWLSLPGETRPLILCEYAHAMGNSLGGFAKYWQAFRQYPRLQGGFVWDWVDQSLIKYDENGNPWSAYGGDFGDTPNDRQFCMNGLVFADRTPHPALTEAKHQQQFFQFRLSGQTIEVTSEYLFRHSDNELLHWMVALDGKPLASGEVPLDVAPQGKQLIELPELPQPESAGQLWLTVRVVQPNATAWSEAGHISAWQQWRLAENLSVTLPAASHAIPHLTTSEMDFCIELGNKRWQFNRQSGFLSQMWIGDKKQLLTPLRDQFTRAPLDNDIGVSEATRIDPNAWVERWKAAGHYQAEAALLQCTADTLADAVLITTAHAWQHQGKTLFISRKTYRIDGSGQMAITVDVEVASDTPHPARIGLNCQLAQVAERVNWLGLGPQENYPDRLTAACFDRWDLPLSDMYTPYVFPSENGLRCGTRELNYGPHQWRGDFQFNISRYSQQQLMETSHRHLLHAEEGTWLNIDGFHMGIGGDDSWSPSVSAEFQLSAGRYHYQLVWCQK

[13] = target: T4, Corticotropin-releasing factor receptor 2/Corticotropin-releasing factor-binding protein (Homo sapiens, UniProt P24387+Q13324); experiment: Dose Response confirmation of uHTS hits for small molecule antagonists of the CRF-binding protein and CRF-R2 receptor complex.; format: functional; conditions: read-out: IC50_Mean
T4 sequence (Q13324 whole entry): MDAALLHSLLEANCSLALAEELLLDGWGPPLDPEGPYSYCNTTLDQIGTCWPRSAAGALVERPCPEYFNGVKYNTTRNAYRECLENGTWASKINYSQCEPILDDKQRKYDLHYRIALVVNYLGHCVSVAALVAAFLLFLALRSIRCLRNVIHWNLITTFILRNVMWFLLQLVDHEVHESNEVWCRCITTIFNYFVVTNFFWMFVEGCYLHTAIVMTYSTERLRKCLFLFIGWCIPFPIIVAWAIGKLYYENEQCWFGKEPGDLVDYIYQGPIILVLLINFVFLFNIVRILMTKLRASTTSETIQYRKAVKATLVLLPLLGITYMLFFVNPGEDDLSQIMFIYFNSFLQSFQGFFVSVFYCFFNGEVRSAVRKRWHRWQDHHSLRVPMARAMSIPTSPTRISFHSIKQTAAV
T4 sequence (P24387 whole entry): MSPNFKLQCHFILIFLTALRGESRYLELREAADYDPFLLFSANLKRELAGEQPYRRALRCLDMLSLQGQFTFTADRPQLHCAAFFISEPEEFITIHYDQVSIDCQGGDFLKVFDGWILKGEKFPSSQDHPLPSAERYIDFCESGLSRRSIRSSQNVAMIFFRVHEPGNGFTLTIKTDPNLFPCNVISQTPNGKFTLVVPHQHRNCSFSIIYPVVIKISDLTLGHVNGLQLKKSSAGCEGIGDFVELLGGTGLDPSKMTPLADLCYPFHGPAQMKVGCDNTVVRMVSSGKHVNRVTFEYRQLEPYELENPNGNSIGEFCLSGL

[14] = target: T4, Corticotropin-releasing factor receptor 2/Corticotropin-releasing factor-binding protein; experiment: activators of CRF receptor 2 with binding protein – uHTS hits, confirmation (AID 602473); format: functional; conditions: read-out: EC50_Mean
[15] = blockers of CRF-binding protein–CRF-R2 complex – cell-based, uHTS hits, 384-well, dose response (AID 651639); format: functional, Homo sapiens; conditions: read-out: IC50_Mean
[16] = target: T5, Ubiquitin-conjugating enzyme E2 N (Homo sapiens, UniProt P61088); format: functional;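 also: Dose-response confirmation in a TR-FRET assay detecting UBC13-driven polyubiquitin chain formation, inhibition measured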
T5 sequence (P61088 whole entry): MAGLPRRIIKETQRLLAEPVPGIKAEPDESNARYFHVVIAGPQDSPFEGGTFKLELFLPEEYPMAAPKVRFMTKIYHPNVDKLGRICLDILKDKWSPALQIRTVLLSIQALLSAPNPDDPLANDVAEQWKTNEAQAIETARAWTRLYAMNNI

[17] = viability of uninfected HEp-2 cells – cell-based, HTS, cytotoxicity control for RSV inhibitor project, dose response (AID 2410); format: functional; conditions: human respiratory syncytial virus
[18] = target: FAD-linked sulfhydryl oxidase ALR (Homo sapiens, UniProt P55789); experiment: ALR-catalysed DTT oxidation blockers – biochemical, H2O2 detection, luminescence, cherry-pick, dose response (AID 493248)
FAD-linked sulfhydryl oxidase ALR, sequence (P55789 whole entry): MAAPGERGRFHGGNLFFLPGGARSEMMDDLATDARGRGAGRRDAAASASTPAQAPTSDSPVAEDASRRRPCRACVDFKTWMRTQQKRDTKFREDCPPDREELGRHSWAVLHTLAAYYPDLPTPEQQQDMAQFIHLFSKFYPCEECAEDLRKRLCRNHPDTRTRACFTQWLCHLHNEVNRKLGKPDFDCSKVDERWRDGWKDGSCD

cells [19] = format: functional, cell-based
[20] = target: T6, Trace amine-associated receptor 1 (Homo sapiens, UniProt Q96RJ0); experiment: Fluorescence-based cell-based high throughput dose response assay to identify agonists of the human trace amine associated receptor 1 (TAAR1).; format: functional
T6 sequence (Q96RJ0 whole entry): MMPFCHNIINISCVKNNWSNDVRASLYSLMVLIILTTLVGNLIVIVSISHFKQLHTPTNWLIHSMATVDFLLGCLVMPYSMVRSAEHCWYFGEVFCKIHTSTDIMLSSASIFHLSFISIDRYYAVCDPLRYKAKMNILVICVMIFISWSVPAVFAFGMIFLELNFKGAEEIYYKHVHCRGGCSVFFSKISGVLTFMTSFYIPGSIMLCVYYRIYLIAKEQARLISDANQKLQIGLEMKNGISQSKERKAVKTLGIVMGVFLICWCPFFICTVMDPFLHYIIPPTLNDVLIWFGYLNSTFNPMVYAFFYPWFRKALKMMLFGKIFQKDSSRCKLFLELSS

[21] = target: T6, Trace amine-associated receptor 1; experiment: Counterscreen for agonists of the human trace amine associated receptor 1 (hTAAR1): Fluorescence-based cell-based high throughput dose response assay to identify hTAAR1 agonist that also desensitize TAAR1 receptor response.; format: functional
cells [22] = format: functional, cell-based; remark: listed apart in the source
Large T antigen = Large T antigen (Simian virus 40, UniProt P03070); format: functional, Betapolyomavirus macacae;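 also: Confirmatory-stage PubChem screen for compounds that inhibit SV40 T antigen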
Large T antigen, sequence (P03070 whole entry): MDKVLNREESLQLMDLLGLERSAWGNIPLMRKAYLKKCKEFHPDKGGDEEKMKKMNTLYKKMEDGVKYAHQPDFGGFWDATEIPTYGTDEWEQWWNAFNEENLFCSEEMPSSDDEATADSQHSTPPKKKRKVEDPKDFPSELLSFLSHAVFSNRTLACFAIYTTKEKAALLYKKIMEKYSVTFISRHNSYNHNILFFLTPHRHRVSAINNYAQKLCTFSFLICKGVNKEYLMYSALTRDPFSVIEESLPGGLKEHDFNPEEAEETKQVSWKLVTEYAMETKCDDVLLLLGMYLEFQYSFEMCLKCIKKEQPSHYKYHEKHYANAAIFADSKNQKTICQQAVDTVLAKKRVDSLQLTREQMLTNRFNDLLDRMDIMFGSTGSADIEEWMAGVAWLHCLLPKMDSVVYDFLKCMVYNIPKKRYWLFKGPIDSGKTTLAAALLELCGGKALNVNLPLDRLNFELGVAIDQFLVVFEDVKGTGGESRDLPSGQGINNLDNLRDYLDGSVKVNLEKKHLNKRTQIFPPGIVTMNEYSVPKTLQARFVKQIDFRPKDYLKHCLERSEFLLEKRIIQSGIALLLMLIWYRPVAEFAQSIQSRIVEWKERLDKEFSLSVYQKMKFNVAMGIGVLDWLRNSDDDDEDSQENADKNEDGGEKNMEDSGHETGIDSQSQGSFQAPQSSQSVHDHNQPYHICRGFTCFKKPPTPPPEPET

Cytochrome P450 2D6 = Cytochrome P450 2D6 (Homo sapiens, UniProt P10635);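 also: CYP2D6 member of a cytochrome P450 panel assay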
Cytochrome P450 2D6, sequence (P10635 whole entry): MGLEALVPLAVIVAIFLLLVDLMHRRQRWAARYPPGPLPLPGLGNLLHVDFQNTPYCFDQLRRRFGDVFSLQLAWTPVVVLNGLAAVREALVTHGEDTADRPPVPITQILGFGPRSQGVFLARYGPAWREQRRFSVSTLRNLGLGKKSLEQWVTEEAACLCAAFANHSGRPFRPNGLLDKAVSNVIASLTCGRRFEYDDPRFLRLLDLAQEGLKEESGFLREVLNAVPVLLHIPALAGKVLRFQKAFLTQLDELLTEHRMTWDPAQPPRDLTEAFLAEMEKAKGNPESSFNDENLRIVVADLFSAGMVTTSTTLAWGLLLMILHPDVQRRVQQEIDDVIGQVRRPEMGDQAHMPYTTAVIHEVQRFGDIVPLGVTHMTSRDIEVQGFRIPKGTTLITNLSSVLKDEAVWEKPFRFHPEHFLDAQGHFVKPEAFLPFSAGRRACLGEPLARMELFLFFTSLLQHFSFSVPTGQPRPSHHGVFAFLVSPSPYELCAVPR

O=[N+]([O-])c1ccc(Sc2cccc3cccnc23)c([N+](=O)[O-])c1
AC50 (INS1): 1.18 µM (active) | AC50 [1]: 1.71 µM (active) | IC50 [2]: 27.6 µM (active) | AC50 [3]: > 70 µM (inactive) | AC50 [4]: 15.2 µM (active) | IC50 [5]: > 100 µM (inactive) | IC50 (Prothrombin): > 100 µM (inactive)

CC(NC(=O)COC(=O)c1ccc([N+](=O)[O-])s1)c1ccccc1 (stereo unspecified)
IC50 [6]: 6.55 µM (active) | IC50 [7]: 17.1 µM (active)

Cc1cccc(OCCCC(=O)Nc2ccc(Br)cc2)c1
IC50 [8]: 119 µM (inactive) | IC50 [9]: 83.3 µM (inactive) | IC50 [10]: 32 µM (inactive)

CCc1cccc(CC)c1NC(=O)COC(=O)/C(C#N)=C/c1ccc(OC)cc1
EC50 [11]: > 99 µM (inactive) | EC50 [12]: > 99 µM (inactive)

Cc1ccc(Nc2ccc(C(=O)NCCc3ccccc3)cn2)cc1
IC50 (Beta-galactosidase): > 80 µM (inactive)

O=C1NC(=O)N(C2CCCCC2)C(=O)/C1=C\C=C\Nc1ccccc1
EC50 [11]: > 99 µM (inactive) | EC50 [12]: 9.49 µM (active)

Cc1ccc(CNC(=O)C2CCN(S(=O)(=O)c3ccc4c(c3)OCCCO4)CC2)cc1
IC50 (Beta-galactosidase): > 80 µM (inactive)

O=C(c1ccc(Cl)cc1)N1CCN(S(=O)(=O)/C=C/c2ccccc2)CC1
IC50 (Beta-galactosidase): > 80 µM (inactive)

C=CCn1c(SCc2c(C)noc2C)nc2sc(C)c(C)c2c1=O
IC50 [13]: < 0.368 µM (active) | EC50 [14]: > 53 µM (inactive) | IC50 [15]: > 20 µM (inactive)

CCOC(=O)c1c(NC(=O)Nc2ccc(C)cc2)sc2c1CCN(C)C2
EC50 [11]: > 99 µM (inactive) | EC50 [12]: > 99 µM (inactive)

CC(C)n1ncc2c(C(=O)Nc3ccc(S(N)(=O)=O)cc3)cc(C3CC3)nc21
IC50 [16]: > 20 µM (inactive) | IC50 [2]: 6.85 µM (active) | IC50 [5]: > 100 µM (inactive) | IC50 (Prothrombin): 73.6 µM (active)

COc1ccc(-c2nnc(SC)nc2-c2ccc(OC)c([N+](=O)[O-])c2)cc1[N+](=O)[O-]
IC50 [6]: > 100 µM (inactive) | IC50 [7]: 46.9 µM (active)

COc1cccc(NC(=S)NC(Cc2ccccc2)c2ccccc2)c1 (stereo unspecified)
IC50 [13]: 3.35 µM (active) | EC50 [14]: > 53 µM (inactive) | IC50 [15]: 2.73 µM (active)

Cc1nn(-c2ccccc2)c(C)c1/C=N/n1c(S)nnc1-c1ccccc1Br
CC50 [17]: 23.2 µM (active) | AC50 [18]: 3.44 µM (active) | IC50 [13]: 3.92 µM (active) | EC50 [14]: > 53 µM (inactive) | IC50 [15]: 10.9 µM (active)

CC/C(=N/Nc1cccc(C)c1)c1cnnc(SC)n1
EC50 [11]: > 99 µM (inactive) | EC50 [12]: > 99 µM (inactive)

Cc1ccc(CO/N=C\Cc2snc(Sc3ncc(C(F)(F)F)cc3Cl)c2C#N)cc1
IC50 [2]: 14.6 µM (active) | IC50 [5]: > 100 µM (inactive) | IC50 (Prothrombin): 54.2 µM (active)

CN(CCc1ccccc1)C(=O)CC1C(=O)NCCN1Cc1ccccn1 (stereo unspecified)
IC50 (cells [19]): > 29.9 µM (inactive) | EC50 [20]: 3.05 µM (active) | IC50 [21]: 9.93 µM (active) | EC50 (cells [22]): > 29.9 µM (inactive)

CCOC(=O)N[C@@H](Cc1cccnc1)C(=O)N1CCC[C@H]1C(=O)NCCc1ccccc1Cl
IC50 (cells [19]): > 29.9 µM (inactive) | EC50 [20]: 3.16 µM (active) | IC50 [21]: 8.93 µM (active) | EC50 (cells [22]): > 29.9 µM (inactive)

N#C/C(=C\c1ccc(O)c(O)c1)C(=O)Nc1ccccc1
IC50 (Large T antigen): 13.1 µM (active) | IC50 [2]: 1.3 µM (active) | IC50 [5]: > 100 µM (inactive) | IC50 (Prothrombin): 67.9 µM (active) | AC50 (Cytochrome P450 2D6): 39.8 µM (inconclusive)
